Assay [1] deals with AC (Homo sapiens (Human), UniProt Q13510). As to the kind of experiment: AC activity in A375 human melanoma cells. Type of assay: cell-based. To be noted: 25 μM, evident at 30 minutes, lasted up to 3 hours. The protocol:
Specifically, FIG. 1 evidences the effects of compound of Example 7 or vehicle (0.1% DMSO in DMEM) on AC activity and ceramide levels in A375 (left panel) or MeWo (right panel) human melanoma cell lines. (A-B) Intact cells were treated with compound of Example 7 (25 μM) or vehicle and AC activity was measured 30 minutes or 3 hours later in cell lysates. (B) Intact cells were exposed to compound of Example 7 (25 μM) for 2 hours or 24 hours and medium chain ceramides (C-D), long chain ceramides (E-F) and dihydroceramides (G-H) were quantified. Results are expressed as mean±s.e.m. (n=3). *p<0.05, **p<0.01, ***p<0.001 vs vehicle, two-way ANOVA followed by Dunnet.
(§1) hAC protein preparation (10 μg) was preincubated with inhibitors (final DMSO concentration 1%) in assay buffer (100 mM sodium phosphate, 0.1% Nonidet P-40, 150 mM NaCl, 3 mM DTT, 100 mM sodium citrate, pH 4.5) for 30 min at 37° C. Reactions were started by the addition of 50 μM N-lauroyl ceramide (Nu-Chek Prep, Elysian, Minn.) and carried on for 30 min at 37° C. […] The organic phases were collected, dried under nitrogen and analyzed by UPLC/MS (Acquity, Waters). […]
(§2) The [M−H]^− ion was monitored in the selected-ion monitoring mode (m/z values: lauric acid 199, 11-lauroleic acid 197.35). […] Inhibition of AC activity was calculated as reduction of lauric acid in the samples compared to vehicle controls. […]

Assay [2] has as its target AC (Mus musculus (Mouse), UniProt Q9WV54). As to the kind of experiment: AC activity in RAW264.7 murine cell line. Type of assay: cell-based. The conditions noted are these: Raw264.7 cells; 0.1-20 μM; 3 hours. The protocol: (§3) Specifically it is reported the concentration response of compound of Example 25 or vehicle (0.1% DMSO in DMEM) on AC activity and ceramide levels in RAW264.7 murine cell line. (A) Intact cells were treated with compound of Example 25 (0.1-20 μM) or vehicle and AC activity was measured 3 hours later in cell lysates. (B-E) Intact cells were exposed to compound of Example 25 (0.1-20 μM) for 3 hours and sphingosine/sphinganine (B), dihydroceramides (C), medium chain ceramides (D), long chain ceramides (E) were quantified. Results are expressed as mean±s.e.m. (n=3). *p<0.05, **p<0.01, ***p<0.001 vs vehicle, two-way ANOVA followed by Dunnet.
as §1, §2

The target of assay [3] is MMP-2 (h) (Homo sapiens (Human), UniProt P08253). As to the kind of experiment: Cerep enzyme inhibition screen: MMP-2. Type of assay: biochemical. The conditions noted are these: mean of two determinations, read-out: Inhibitory activity (% Inh. at 10 μM), mean. From the text: Compound of Example 25 falling in both Formula (I) and (Ia) was selected to be tested for off-target effects on a set of enzymes that include proteases (aspartic, cysteine, and serine), cyclooxygenases as well as lipoxygenases and group IV phospholipase (sPLA2) (Table 3). [table]

The test system of assay [4] is Raw264.7 cells. As to the kind of experiment: sphingosine and ceramide levels in RAW264.7 cells. Type of assay: cell-based, mouse. To be noted: 0.1-20 μM, 3 hours. On the procedure:
as §3
Lipids were extracted from mouse tissue lysate with a chloroform/MeOH mixture (2:1 v/v, 3 mL) containing internal standards. The organic phase was collected, dried under nitrogen, and dissolved in chloroform/MeOH (1:3 v/v) for LC-MS analyses. Ceramides, sphingosine and sphinganine were analyzed by LC-MS/MS, using a Waters Acquity UPLC coupled with a Waters Xevo TQMS and interfaced with ESI. […]
Tissue-derived sphingosine and sphinganine were identified by comparison of their LC retention times and MS^2 fragmentation patterns with those of authentic standards (Avanti Polar Lipids). Extracted ion chromatograms were used to quantify sphingosine ([…], m/z 300.5>282.5) and sphinganine standard (C18:0, m/z 303>285). […]

Sequence of AC (Mus musculus (Mouse), UniProt Q9WV54) (Q9WV54 19-141): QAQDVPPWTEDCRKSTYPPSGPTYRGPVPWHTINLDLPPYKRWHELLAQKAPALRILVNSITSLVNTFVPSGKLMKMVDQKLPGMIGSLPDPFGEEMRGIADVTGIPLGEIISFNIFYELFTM
Sequence of AC (Mus musculus (Mouse), UniProt Q9WV54) (Q9WV54 142-394): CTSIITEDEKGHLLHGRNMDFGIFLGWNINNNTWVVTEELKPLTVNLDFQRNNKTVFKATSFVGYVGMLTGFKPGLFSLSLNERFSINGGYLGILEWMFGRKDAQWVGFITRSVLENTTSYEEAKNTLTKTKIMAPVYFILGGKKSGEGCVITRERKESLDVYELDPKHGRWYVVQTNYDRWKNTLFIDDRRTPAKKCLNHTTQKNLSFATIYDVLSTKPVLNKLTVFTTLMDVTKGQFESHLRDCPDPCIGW
Sequence of AC (Homo sapiens (Human), UniProt Q13510) (Q13510 22-142): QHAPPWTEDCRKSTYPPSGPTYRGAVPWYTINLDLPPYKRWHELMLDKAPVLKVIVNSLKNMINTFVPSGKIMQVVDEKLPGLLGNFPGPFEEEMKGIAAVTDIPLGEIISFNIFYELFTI
Sequence of AC (Homo sapiens (Human), UniProt Q13510) (Q13510 143-395): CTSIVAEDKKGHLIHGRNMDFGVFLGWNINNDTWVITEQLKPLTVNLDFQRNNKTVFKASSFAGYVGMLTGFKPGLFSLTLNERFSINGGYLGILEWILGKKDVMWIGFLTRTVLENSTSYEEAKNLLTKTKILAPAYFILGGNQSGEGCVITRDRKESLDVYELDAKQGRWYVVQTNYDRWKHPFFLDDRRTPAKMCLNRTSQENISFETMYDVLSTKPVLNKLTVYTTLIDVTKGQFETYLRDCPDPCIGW
Sequence of MMP-2 (h) (P08253 110-660): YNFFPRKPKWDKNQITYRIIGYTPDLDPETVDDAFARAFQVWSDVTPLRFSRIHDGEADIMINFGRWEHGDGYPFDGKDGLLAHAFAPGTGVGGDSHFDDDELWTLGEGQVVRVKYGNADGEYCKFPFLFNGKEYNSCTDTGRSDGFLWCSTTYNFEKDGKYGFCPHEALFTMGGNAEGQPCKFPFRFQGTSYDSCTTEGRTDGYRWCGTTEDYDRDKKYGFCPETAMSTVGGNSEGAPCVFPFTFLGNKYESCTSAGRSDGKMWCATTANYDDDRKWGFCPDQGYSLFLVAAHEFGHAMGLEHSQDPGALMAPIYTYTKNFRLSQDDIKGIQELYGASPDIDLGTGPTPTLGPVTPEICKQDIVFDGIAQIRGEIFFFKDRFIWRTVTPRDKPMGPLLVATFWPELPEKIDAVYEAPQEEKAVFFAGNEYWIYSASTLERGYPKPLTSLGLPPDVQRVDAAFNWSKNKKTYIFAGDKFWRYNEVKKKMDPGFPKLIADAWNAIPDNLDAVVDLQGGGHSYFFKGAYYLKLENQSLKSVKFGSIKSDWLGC

With `O=C(NCCCCc1ccccc1)n1c(=O)oc2cc(Br)ccc21` [Example 7, 6-Bromo-2-oxo-N-(4-phenylbutyl)-1,3-benzoxazole-3-carboxamide], the AC activity entry in assay [1] is “reduction in AC activity”.
Regarding `O=C(NCCCCc1ccccc1)n1c(=O)oc2cc(-c3ccc(F)cc3)ccc21` [Example 25, 6-(4-Fluorophenyl)-2-oxo-N-(4-phenylbutyl)-1,3-benzoxazole-3-carboxamide], in assay [2], the AC activity result is “concentration dependent reduction in AC activity”. The inhibition at 10 µM in assay [3] was 7.2%. Besides, in assay [4], the “di-hydro ceramides and ceramide species levels” value is “intracellular accumulation of various di-hydro ceramides and ceramide species”; the sphingosine levels entry is listed as “parallel decrease in sphingosine levels”.
